# US20090304692A1, “TRIAZINE COMPOUNDS AS PI3 KINASE AND MTOR INHIBITORS” (Wyeth, priority 2008, published 2009)
# pIC50: −log10 of the molar value. Several values for one entry are separate records, joined by “and”; a condition that tells them apart may be missing. Identical values can stand only once. Counter-ions that a name gives are not always drawn. Like-named read-outs stand apart in the source and are kept apart here.
# How the values were obtained:
# [1] = tested on: human prostate PC3-mm2 tumor cell line; test: In vitro cell culture growth assay (MTS), PC3-mm2; type: cell-based; conditions: Homo sapiens, PC3MM2, 72 h
# [2] = target: PI3K-γ (Homo sapiens, UniProt P48736); test: PI3K-gamma fluorescence polarization assay; conditions: read-out: IC50 PI3Kγ
# [3] = target: PI3K-α (Homo sapiens, UniProt P42336); test: PI3K-alpha fluorescence polarization assay; conditions: read-out: IC50 PI3Kα
# [4] = tested on: human breast MDA-MB-361 tumor cell line; test: In vitro cell culture growth assay (MTS), MDA-MB-361; type: cell-based; conditions: Homo sapiens
# [5] = target: Human mTOR (FLAG-TOR) (Homo sapiens, UniProt P42345); test: mTOR kinase assay (DELFIA format, purified enzyme); type: biochemical; conditions: read-out: IC50 mTOR
# [6] = MTS cell growth assay, three days after drug treatment, PC3-mm2 cells, read-out: IC50 PC3-mm2
# [7] = 72 h, MTS cell growth assay, three days after drug treatment, MDA-MB-361 cells, read-out: IC50 MDA-MB-361
# [8] = MTS cell growth assay, three days after drug treatment, read-out: IC50 PC3-mm2
# [9] = MDA-MB-361, 72 h, MTS cell growth assay, three days after drug treatment, read-out: IC50 MDA-MB-361
# [10] = read-out: IC50 PC3-mm2, MTS cell growth assay, three days after drug treatment
# [11] = MDA-MB-361, 72 h, MTS cell growth assay, three days after drug treatment, MDA-MB-361 cells, read-out: IC50 MDA-MB-361
# Sequence of Human mTOR (FLAG-TOR) (P42345 1360-2549 limits assumed): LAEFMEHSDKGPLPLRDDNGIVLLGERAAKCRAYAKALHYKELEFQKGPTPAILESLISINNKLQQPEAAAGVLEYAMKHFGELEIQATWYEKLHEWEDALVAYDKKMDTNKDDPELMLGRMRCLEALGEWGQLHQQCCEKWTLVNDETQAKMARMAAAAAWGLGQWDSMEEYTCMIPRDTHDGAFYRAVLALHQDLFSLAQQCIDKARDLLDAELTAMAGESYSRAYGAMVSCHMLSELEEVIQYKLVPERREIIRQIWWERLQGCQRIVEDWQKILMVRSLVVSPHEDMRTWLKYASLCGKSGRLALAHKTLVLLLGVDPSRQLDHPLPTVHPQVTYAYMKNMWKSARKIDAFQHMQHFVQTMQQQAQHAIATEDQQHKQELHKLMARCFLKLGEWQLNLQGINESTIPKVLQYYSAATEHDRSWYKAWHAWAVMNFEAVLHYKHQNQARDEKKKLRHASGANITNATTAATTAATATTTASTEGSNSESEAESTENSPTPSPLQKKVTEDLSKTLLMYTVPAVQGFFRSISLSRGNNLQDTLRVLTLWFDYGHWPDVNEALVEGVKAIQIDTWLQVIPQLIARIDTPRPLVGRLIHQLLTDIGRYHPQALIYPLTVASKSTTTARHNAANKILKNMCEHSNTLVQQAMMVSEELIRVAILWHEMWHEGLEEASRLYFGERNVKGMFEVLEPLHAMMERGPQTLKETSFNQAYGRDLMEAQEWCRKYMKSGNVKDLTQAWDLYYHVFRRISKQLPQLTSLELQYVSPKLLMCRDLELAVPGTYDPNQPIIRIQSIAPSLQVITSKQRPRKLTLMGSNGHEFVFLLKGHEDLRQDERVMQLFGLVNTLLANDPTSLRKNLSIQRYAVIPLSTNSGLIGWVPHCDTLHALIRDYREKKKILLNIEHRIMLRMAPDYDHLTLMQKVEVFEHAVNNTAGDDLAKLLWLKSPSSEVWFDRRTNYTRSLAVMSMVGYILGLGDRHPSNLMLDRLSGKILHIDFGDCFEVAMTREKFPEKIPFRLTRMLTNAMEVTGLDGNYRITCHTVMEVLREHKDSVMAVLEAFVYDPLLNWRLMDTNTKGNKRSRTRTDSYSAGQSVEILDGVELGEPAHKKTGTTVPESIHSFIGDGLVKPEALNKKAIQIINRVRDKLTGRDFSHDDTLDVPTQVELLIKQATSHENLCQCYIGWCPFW
# Sequence of PI3K-γ (P48736 whole entry, species assumed): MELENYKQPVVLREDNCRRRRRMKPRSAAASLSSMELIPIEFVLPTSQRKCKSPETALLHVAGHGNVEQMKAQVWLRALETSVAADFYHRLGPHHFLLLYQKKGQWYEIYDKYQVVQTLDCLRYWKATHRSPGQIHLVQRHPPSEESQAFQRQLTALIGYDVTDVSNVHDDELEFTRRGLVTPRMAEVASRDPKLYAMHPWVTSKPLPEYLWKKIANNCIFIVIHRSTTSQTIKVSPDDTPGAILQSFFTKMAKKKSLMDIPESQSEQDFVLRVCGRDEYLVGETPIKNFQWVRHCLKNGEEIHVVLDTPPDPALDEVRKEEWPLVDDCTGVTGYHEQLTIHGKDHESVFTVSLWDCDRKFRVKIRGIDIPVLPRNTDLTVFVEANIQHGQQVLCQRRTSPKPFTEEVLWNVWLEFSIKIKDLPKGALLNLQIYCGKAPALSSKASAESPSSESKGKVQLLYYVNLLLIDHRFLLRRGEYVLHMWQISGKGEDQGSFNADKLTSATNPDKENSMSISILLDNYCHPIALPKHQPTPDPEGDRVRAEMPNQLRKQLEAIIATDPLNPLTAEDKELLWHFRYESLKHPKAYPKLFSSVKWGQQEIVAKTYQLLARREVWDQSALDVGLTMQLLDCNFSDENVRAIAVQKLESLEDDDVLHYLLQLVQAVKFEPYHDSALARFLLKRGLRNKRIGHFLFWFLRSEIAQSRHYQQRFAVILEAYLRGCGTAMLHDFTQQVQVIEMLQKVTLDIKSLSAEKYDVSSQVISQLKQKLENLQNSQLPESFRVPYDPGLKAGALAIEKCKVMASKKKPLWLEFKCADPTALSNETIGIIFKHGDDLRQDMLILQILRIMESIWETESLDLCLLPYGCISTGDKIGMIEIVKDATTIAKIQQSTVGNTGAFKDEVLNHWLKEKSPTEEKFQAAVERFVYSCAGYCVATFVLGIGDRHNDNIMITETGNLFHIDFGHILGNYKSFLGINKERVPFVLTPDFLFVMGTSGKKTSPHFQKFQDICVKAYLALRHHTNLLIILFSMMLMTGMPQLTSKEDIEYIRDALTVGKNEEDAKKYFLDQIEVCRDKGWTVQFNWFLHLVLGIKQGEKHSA
# Sequence of PI3K-α (P42336 whole entry, species assumed): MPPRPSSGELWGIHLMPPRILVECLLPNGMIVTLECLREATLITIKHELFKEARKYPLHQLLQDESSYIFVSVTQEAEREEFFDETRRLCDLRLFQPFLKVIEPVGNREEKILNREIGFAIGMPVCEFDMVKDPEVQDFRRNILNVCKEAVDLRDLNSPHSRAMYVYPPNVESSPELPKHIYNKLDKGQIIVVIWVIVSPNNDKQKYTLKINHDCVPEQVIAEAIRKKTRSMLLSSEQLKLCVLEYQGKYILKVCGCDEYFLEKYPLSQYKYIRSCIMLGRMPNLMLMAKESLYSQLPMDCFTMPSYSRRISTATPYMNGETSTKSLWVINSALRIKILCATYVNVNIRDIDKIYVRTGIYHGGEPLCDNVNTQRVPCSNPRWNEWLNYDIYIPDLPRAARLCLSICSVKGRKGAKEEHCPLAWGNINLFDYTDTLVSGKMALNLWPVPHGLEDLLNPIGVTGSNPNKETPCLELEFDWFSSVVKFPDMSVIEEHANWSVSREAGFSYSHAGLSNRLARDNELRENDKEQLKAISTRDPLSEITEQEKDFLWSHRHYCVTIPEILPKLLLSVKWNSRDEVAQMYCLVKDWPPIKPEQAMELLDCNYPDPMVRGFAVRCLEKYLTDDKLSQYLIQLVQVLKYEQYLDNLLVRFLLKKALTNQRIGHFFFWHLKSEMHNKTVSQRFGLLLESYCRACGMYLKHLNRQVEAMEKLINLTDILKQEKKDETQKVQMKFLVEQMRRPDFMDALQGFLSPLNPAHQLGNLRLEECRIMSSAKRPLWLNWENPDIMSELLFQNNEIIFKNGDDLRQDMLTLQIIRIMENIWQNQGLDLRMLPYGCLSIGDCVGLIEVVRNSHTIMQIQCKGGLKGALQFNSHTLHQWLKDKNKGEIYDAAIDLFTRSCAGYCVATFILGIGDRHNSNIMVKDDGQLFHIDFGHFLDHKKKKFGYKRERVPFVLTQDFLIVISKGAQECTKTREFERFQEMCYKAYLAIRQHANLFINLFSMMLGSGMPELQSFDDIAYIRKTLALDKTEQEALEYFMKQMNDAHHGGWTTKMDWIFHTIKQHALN
# Sequence of PI3K-α (P27986 whole entry partner, species assumed): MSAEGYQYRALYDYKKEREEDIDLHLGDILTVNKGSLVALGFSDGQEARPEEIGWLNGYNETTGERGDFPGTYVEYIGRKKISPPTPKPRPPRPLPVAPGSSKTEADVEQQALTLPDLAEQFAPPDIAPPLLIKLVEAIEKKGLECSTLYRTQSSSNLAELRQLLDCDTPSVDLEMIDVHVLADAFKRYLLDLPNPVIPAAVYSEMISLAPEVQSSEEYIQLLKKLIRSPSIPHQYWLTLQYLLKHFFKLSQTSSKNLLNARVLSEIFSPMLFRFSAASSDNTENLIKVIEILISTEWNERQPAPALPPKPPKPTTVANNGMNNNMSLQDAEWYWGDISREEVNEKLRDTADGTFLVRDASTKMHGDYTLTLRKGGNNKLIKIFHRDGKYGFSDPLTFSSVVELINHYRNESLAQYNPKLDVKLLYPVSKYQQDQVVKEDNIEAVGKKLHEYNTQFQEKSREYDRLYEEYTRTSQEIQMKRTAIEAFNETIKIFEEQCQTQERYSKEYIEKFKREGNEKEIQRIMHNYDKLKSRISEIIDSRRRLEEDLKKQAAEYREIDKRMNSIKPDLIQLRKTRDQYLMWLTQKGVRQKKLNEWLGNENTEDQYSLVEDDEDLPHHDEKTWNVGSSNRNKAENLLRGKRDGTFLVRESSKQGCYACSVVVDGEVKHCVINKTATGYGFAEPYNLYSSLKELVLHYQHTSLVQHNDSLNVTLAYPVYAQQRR
SMILES,"pIC50 [1, 6]",pIC50 [2],pIC50 [3],"pIC50 [4, 7]",pIC50 [5],"pIC50 [1, 8]","pIC50 [4, 9]","pIC50 [4, 11]",other results
"Cc1ccc(NC(=O)Nc2ccc(-c3nc(N4CCOCC4)nc(N4C5CCC4COC5)n3)cc2)cc1 [Example 41, 1-(4-methylphenyl)-3-{4-[4-morpholin-4-yl-6-(3-oxa-8-azabicyclo[3.2.1]oct-8-yl)-1,3,5-triazin-2-yl]phenyl}urea]",6.52,6.91,7.16,,8.89,6.52,6.78,6.78,pIC50 ([3]; listed as 676): 7.16
"CN(C)CCCNC(=O)c1ccc(NC(=O)Nc2ccc(-c3nc(-c4cccs4)nc(N4CCOCC4)n3)cc2)cc1 [Example 570, N-[3-(dimethylamino)propyl]-4-[({4-[4-morpholin-4-yl-6-(2-thienyl)-1,3,5-triazin-2-yl]phenyl}carbamoyl)amino]benzamide]",6.46,7.32,8.26,7.55,7.89,,,,
"CC(=O)c1ccc(NC(=O)Nc2ccc(-c3nc(N4CCOCC4)nc(N4C5CCC4COC5)n3)cc2)cc1 [Example 230, 1-(4-acetylphenyl)-3-{4-[4-morpholin-4-yl-6-(3-oxa-8-azabicyclo[3.2.1]oct-8-yl)-1,3,5-triazin-2-yl]phenyl}urea]",> 7.51,6.92,7.66,,8.92 and 9.82,,,> 7.51,pIC50 ([2]; listed as 719): 7.02; pIC50 ([3]; listed as 719): 7.76
"O=C(Nc1ccccc1)Nc1ccc(-c2nc(OC3CCOCC3)nc(N3CCOCC3)n2)cc1 [Example 60, 1-{4-[4-morpholin-4-yl-6-(tetrahydro-2H-pyran-4-yloxy)-1,3,5-triazin-2-yl]phenyl}-3-phenylurea]",,7.44,8.30,,8.74,7.04,7.08,,
"O=C(Nc1ccncc1)Nc1ccc(-c2nc(N3CCOCC3)nc(N3C4CCCC3COC4)n2)cc1 [Example 791, 1-{4-[4-morpholin-4-yl-6-(3-oxa-9-azabicyclo[3.3.1]non-9-yl)-1,3,5-triazin-2-yl]phenyl}-3-pyridin-4-ylurea]",7.38,7.19,7.90,7.96,9.17,,,,
"CN(C)CCNC(=O)c1ccc(NC(=O)Nc2ccc(-c3nc(-c4ccccc4)nc(N4CCOCC4)n3)cc2)cc1 [Example 545, N-[2-(dimethylamino)ethyl]-4-({[4-(4-morpholin-4-yl-6-phenyl-1,3,5-triazin-2-yl)phenyl]carbamoyl}amino)benzamide]",6.66,7.77,8.40,7.52,7.96,,,,
"O=C(Nc1ccc(C(=O)N2CCOCC2)cc1)Nc1ccc(-c2nc(N3CCOCC3)nc(N3C4CCC3COC4)n2)cc1 [Example 763, 1-[4-(morpholin-4-ylcarbonyl)phenyl]-3-{4-[4-morpholin-4-yl-6-(3-oxa-8-azabicyclo[3.2.1]oct-8-yl)-1,3,5-triazin-2-yl]phenyl}urea]",8.15,7.62,8.52,,9.35,,,8.40,
"COC(=O)c1ccc(NC(=O)Nc2ccc(-c3nc(N4CCOC[C@@H]4C)nc(N4CCOC[C@@H]4C)n3)cc2)cc1 [Example 540, methyl 4-{[(4-{4,6-bis[(3S)-3-methylmorpholin-4-yl]-1,3,5-triazin-2-yl}phenyl)carbamoyl]amino}benzoate]",6.51,6.92,7.27,6.78,11.47,,,,

# Second part, led by results:
"pIC50 [1, 6]",pIC50 [2],pIC50 [3],"pIC50 [4, 7]",pIC50 [5],"pIC50 [1, 8]","pIC50 [4, 9]","pIC50 [4, 11]",SMILES,other results
6.73,7.23,8.11,7.29,9.00,,,,"CN(C)C(=O)N1CCN(c2nc(-c3ccc(NC(=O)Nc4ccc(C(=O)Nc5ccnnc5)cc4)cc3)nc(N3CCOCC3)n2)CC1 [Example 644, N,N-dimethyl-4-{4-morpholin-4-yl-6-[4-({[4-(pyridazin-4-ylcarbamoyl)phenyl]carbamoyl}amino)phenyl]-1,3,5-triazin-2-yl}piperazine-1-carboxamide]",
,7.59,8.05,,7.74,6.81,7.16,,"CCCc1nc(-c2ccc(NC(=O)Nc3ccc(N4CCN(C)CC4)cc3)cc2)nc(N2CCOCC2)n1 [Example 294, 1-[4-(4-methylpiperazin-1-yl)phenyl]-3-[4-(4-morpholin-4-yl-6-propyl-1,3,5-triazin-2-yl)phenyl]urea]",
,8.15,9.52,,9.24,,> 8.52,,"CN(C)CCNC(=O)c1ccc(NC(=O)Nc2ccc(-c3nc(N4CCOCC4)nc(N4CCOCC4)n3)cc2)cc1 [Example 68, N-(2-(dimethylamino)ethyl)-4-(3-(4-(4,6-dimorpholino-1,3,5-triazin-2-yl)phenyl)ureido)benzamide]","pIC50 [1, 10]: 7.96"
6.81,7.39,8.30,,7.89,,,7.59,"CCN1CCN(C(=O)c2ccc(NC(=O)Nc3ccc(-c4nc(N5CCCCC5)nc(N5CCOCC5)n4)cc3)cc2)CC1 [Example 596, 1-{4-[(4-ethylpiperazin-1-yl)carbonyl]phenyl}-3-[4-(4-morpholin-4-yl-6-piperidin-1-yl-1,3,5-triazin-2-yl)phenyl]urea]",
,8.10,9.40,,9.07,7.89,8.00,,"CN1CCN(C(=O)c2ccc(NC(=O)Nc3ccc(-c4nc(N5CCOCC5)nc(N5CCOCC5)n4)cc3)cc2)CC1 [Example 69, 1-(4-(4,6-dimorpholino-1,3,5-triazin-2-yl)phenyl)-3-(4-(4-methylpiperazine-1-carbonyl)phenyl)urea hydrochloride]",
7.48,7.96,9.00,,8.51,7.48,7.91,7.91,"CN(C)C1CCN(C(=O)c2ccc(NC(=O)Nc3ccc(-c4nc(C5=CCOCC5)nc(N5CCOCC5)n4)cc3)cc2)CC1 [Example 283, 1-{4-[4-(3,6-dihydro-2H-pyran-4-yl)-6-morpholin-4-yl-1,3,5-triazin-2-yl]phenyl}-3-(4-{[4-(dimethylamino)piperidin-1-yl]carbonyl}phenyl)urea]",pIC50 ([2]; listed as 505): 8.30; pIC50 ([3]; listed as 505): 9.22
7.92,8.22,9.00,> 7.66,8.80,7.92,,,"CN(C)CCN(C)C(=O)c1ccc(NC(=O)Nc2ccc(-c3nc(C4=CCOCC4)nc(N4CCOCC4)n3)cc2)cc1 [Example 240, 4-[({4-[4-(3,6-dihydro-2H-pyran-4-yl)-6-morpholin-4-yl-1,3,5-triazin-2-yl]phenyl}carbamoyl)amino]-N-[2-(dimethylamino)ethyl]-N-methylbenzamide]",pIC50 ([2]; listed as 506): 8.15; pIC50 ([3]; listed as 506): 9.52
6.67,7.40,8.26,,8.00,,,7.66,"CN(C)C1CCN(C(=O)c2ccc(NC(=O)Nc3ccc(-c4nc(N5CCCCC5)nc(N5CCOCC5)n4)cc3)cc2)CC1 [Example 598, 1-(4-{[4-(dimethylamino)piperidin-1-yl]carbonyl}phenyl)-3-[4-(4-morpholin-4-yl-6-piperidin-1-yl-1,3,5-triazin-2-yl)phenyl]urea]",
,7.52,8.62,,8.22,7.07,7.89,,"CC(C)Cc1nc(-c2ccc(NC(=O)Nc3ccc(C(=O)N4CCN(C)CC4)cc3)cc2)nc(N2CCOCC2)n1 [Example 322, 1-{4-[(4-methylpiperazin-1-yl)carbonyl]phenyl}-3-{4-[4-(2-methylpropyl)-6-morpholin-4-yl-1,3,5-triazin-2-yl]phenyl}urea]",
,7.68,9.00,,8.70,,,,"O=C(Nc1ccc(CCO)cc1)Nc1ccc(-c2nc(N3CCOCC3)nc(N3CCOCC3)n2)cc1 [Example 50, 1-[4-(4,6-dimorpholin-4-yl-1,3,5-triazin-2-yl)phenyl]-3-[4-(2-hydroxyethyl)phenyl]urea]","pIC50 [1, 10]: 7.41; pIC50 ([4]; MDA-MB-361, 72 h, read-out: IC50 MDA-MB-361, MTS cell growth assay, three days after drug treatment): 7.44"
7.08,7.49,8.00,,8.33 and 8.39,7.08,7.08,,"O=C(Nc1ccncc1)Nc1ccc(-c2nc(N3CCOCC3)nc(N3CC4COC(C3)O4)n2)cc1 (stereo not shown) [Example 282, 1-{4-[4-(6,8-dioxa-3-azabicyclo[3.2.1]oct-3-yl)-6-morpholin-4-yl-1,3,5-triazin-2-yl]phenyl}-3-pyridin-4-ylurea]",pIC50 ([2]; listed as 740): 7.46; pIC50 ([3]; listed as 740): 7.94
5.75,7.24,7.55,,7.77,,,6.02,"O=C(Nc1ccc(C(=O)O)cc1)Nc1ccc(-c2nc(-c3ccccc3)nc(N3CCOCC3)n2)cc1 [Example 541, 4-({[4-(4-morpholin-4-yl-6-phenyl-1,3,5-triazin-2-yl)phenyl]carbamoyl}amino)benzoic acid]",
